Measurements as given in the NIST ThermoML archive (doi:10.1016/j.jct.2013.10.025).

Assay: xn = mol fraction of the nth substance listed
Settings: 101 kPa, Liquid; for viscosity: Capillary tube (Ostwald / Ubbelohde) method; for speed of sound: Sing-around technique in a fixed-path interferometer; for mass density: Vibrating tube method

CCCCCCCCCCO [decan-1-ol] + C1CCOC1
Settings	mass density [kg/m3]	speed of sound [m/s]	viscosity [mPa·s]
298.15 K, x2 = 0.0503	827.6	1372.7	9.806
298.15 K, x2 = 0.1046	828.949	1368.8	8.47
298.15 K, x2 = 0.157	830.327	1365.1	7.201
298.15 K, x2 = 0.2022	831.593	1361.8	6.345
298.15 K, x2 = 0.253	833.093	1357.5	5.428
298.15 K, x2 = 0.3057	834.766	1352.6	4.609
298.15 K, x2 = 0.4094	838.49	1343.7	3.343
298.15 K, x2 = 0.5018	842.347	1334	2.503
298.15 K, x2 = 0.6038	847.354	1323.4	1.842
298.15 K, x2 = 0.7003	853.111	1312.4	1.366
298.15 K, x2 = 0.8004	860.53	1299.3	0.98
298.15 K, x2 = 0.9043	870.265	1286.4	0.691
303.15 K, x2 = 0.0503	824.137	1355.9	8.074
303.15 K, x2 = 0.1046	825.438	1351.7	7.037
303.15 K, x2 = 0.157	826.766	1348.3	6.17
303.15 K, x2 = 0.2022	827.998	1344.4	5.262
303.15 K, x2 = 0.253	829.453	1339.9	4.527
303.15 K, x2 = 0.3057	831.076	1335	3.958
303.15 K, x2 = 0.4094	834.656	1325.7	2.908
303.15 K, x2 = 0.5018	838.365	1315.6	2.095
303.15 K, x2 = 0.6038	843.203	1304.3	1.635
303.15 K, x2 = 0.7003	848.748	1292.6	1.224
303.15 K, x2 = 0.8004	855.869	1278.9	0.907
303.15 K, x2 = 0.9043	865.235	1264.9	0.649
308.15 K, x2 = 0.0503	820.661	1339.1	6.379
308.15 K, x2 = 0.1046	821.913	1335	5.67
308.15 K, x2 = 0.157	823.195	1331.1	4.969
308.15 K, x2 = 0.2022	824.389	1327	4.236
308.15 K, x2 = 0.253	825.796	1322.2	3.663
308.15 K, x2 = 0.3057	827.357	1317.2	3.249
308.15 K, x2 = 0.4094	830.825	1307.1	2.385
308.15 K, x2 = 0.5018	834.401	1296.8	1.738
308.15 K, x2 = 0.6038	839.036	1284.4	1.408
308.15 K, x2 = 0.7003	844.365	1271.8	1.04
308.15 K, x2 = 0.8004	851.199	1257.6	0.807
308.15 K, x2 = 0.9043	860.184	1241.5	0.58
313.15 K, x2 = 0.0503	817.16	1322.7	–
313.15 K, x2 = 0.1046	818.367	1318.3	–
313.15 K, x2 = 0.157	819.603	1314.4	–
313.15 K, x2 = 0.2022	820.753	1310.1	–
313.15 K, x2 = 0.253	822.116	1305.7	–
313.15 K, x2 = 0.3057	823.62	1300.1	–
313.15 K, x2 = 0.4094	826.953	1289.6	–
313.15 K, x2 = 0.5018	830.393	1278.9	–
313.15 K, x2 = 0.6038	834.849	1266.3	–
313.15 K, x2 = 0.7003	839.96	1253.2	–
313.15 K, x2 = 0.8004	846.506	1238.4	–
313.15 K, x2 = 0.9043	855.097	1221.6	–

CCCCCCO [hexan-1-ol] + C1CCOC1
Settings	mass density [kg/m3]	speed of sound [m/s]	viscosity [mPa·s]
298.15 K, x2 = 0.0538	817.624	1301.1	3.778
298.15 K, x2 = 0.1144	820.377	1298.8	3.16
298.15 K, x2 = 0.1511	822.105	1297	2.887
298.15 K, x2 = 0.2009	824.537	1295	2.477
298.15 K, x2 = 0.256	827.327	1292.7	2.133
298.15 K, x2 = 0.3156	830.492	1291	1.855
298.15 K, x2 = 0.4199	836.41	1287.7	1.453
298.15 K, x2 = 0.5013	841.407	1285.1	1.199
298.15 K, x2 = 0.6029	848.183	1282.2	0.986
298.15 K, x2 = 0.7071	855.823	1279.3	0.786
298.15 K, x2 = 0.8042	863.667	1277.1	0.661
298.15 K, x2 = 0.9057	872.745	1276.4	0.559
303.15 K, x2 = 0.0538	813.958	1284.1	3.22
303.15 K, x2 = 0.1144	816.633	1281.5	2.737
303.15 K, x2 = 0.1511	818.311	1279.5	2.516
303.15 K, x2 = 0.2009	820.671	1277.3	2.148
303.15 K, x2 = 0.256	823.388	1275.1	1.901
303.15 K, x2 = 0.3156	826.467	1272.8	1.633
303.15 K, x2 = 0.4199	832.217	1269	1.325
303.15 K, x2 = 0.5013	837.071	1265.9	1.107
303.15 K, x2 = 0.6029	843.655	1262.2	0.904
303.15 K, x2 = 0.7071	851.067	1258.5	0.719
303.15 K, x2 = 0.8042	858.694	1255.6	0.619
303.15 K, x2 = 0.9057	867.506	1254	0.536
308.15 K, x2 = 0.0538	810.268	1267.1	2.728
308.15 K, x2 = 0.1144	812.863	1264	2.373
308.15 K, x2 = 0.1511	814.495	1261.9	2.13
308.15 K, x2 = 0.2009	816.788	1259.4	1.886
308.15 K, x2 = 0.256	819.426	1257.1	1.598
308.15 K, x2 = 0.3156	822.411	1254.3	1.422
308.15 K, x2 = 0.4199	827.995	1249.8	1.127
308.15 K, x2 = 0.5013	832.704	1246	0.95
308.15 K, x2 = 0.6029	839.095	1241.4	0.796
308.15 K, x2 = 0.7071	846.295	1236.7	0.64
308.15 K, x2 = 0.8042	853.69	1232.5	0.566
308.15 K, x2 = 0.9057	862.242	1230	0.47
313.15 K, x2 = 0.0538	806.544	1250.3	–
313.15 K, x2 = 0.1144	809.062	1246.9	–
313.15 K, x2 = 0.1511	810.645	1244.7	–
313.15 K, x2 = 0.2009	812.872	1242.7	–
313.15 K, x2 = 0.256	815.429	1239.8	–
313.15 K, x2 = 0.3156	818.321	1236.7	–
313.15 K, x2 = 0.4199	823.739	1231.7	–
313.15 K, x2 = 0.5013	828.306	1227.5	–
313.15 K, x2 = 0.6029	834.502	1222.5	–
313.15 K, x2 = 0.7071	841.483	1217	–
313.15 K, x2 = 0.8042	848.648	1212.4	–
313.15 K, x2 = 0.9057	856.935	1209	–
